Results: patent publication US8092838B2, “Use of hydrogen sulfide in the treatment of eye diseases” (The University of Houston System, priority 2005, dated 2012)
Like-named read-outs stand apart in the source and are kept apart here.

Legend:
isolated porcine iris = experiment: Relaxation of carbachol-induced tone in isolated porcine iris muscle strips; assay type: cell-based
[1] = test system: normotensive, conscious albino rabbits; experiment: Intraocular pressure after topical application in normotensive, conscious albino rabbits (pneumatonometer)
Excerpt: A 1% dose of NaHS was applied topically to one eye and the saline vehicle to the other eye.
The effect of a generator of H2S in biological tissues (NaHS) on intraocular pressure in normotensive, conscious albino rabbits was examined. In the eyes of a rabbit, the desired intraocular pressure is around 20 mm Hg. While in human, the desired intraocular pressure in the eye is in the range of from about 12 mm Hg to 15 mm Hg. Ranges of about 18 to 24 mm Hg in a human eye are generally considered elevated. Two baseline intraocular pressure measurements were made in nine rabbits using a pneumatonometer (Medtronic, Model 30 Classic, Jacksonville, Fla.) at −1, and 0 hour after topical application of proparacaine 0.5%. NaHS (1%, dissolved in sterile saline solution) was applied topically to one eye of each animal while the saline vehicle was administered to the other (control) eyes. Intraocular pressures were measured in both eyes at +0.5, +1, +3, and +6 hours after instillation of the drug and vehicle.

[2] = test system: isolated porcine iris-ciliary bodies; assay type: cell-based; settings: for effect on NaHS-induced inhibition of evoked [3H]NE release: modifier 1 mM, NaHS 1 μM
[3] = test system: isolated porcine iris-ciliary body; experiment: Norepinephrine concentration in isolated porcine iris-ciliary body (HPLC); assay type: cell-based; settings: NaHS 30-300 μM
Excerpt: The data support results obtained from neurotransmitter release studies which show a decrease in norepinephrine output.
To determine the mechanism of action of H2S donors on sympathetic neurotransmitter pools in the anterior uvea, the direct effect of NaHS was studied on catecholamine (norepinephrine, epinephrine and dopamine) concentrations in porcine iris-ciliary bodies using […] Liquid Chromatography techniques. […] Data from this study supports the previous observation that H2S donors can reduce the release of [^3H]NE from isolated porcine irides. It appears that by reducing the availability of the neurotransmitter (norepinephrine), H2S can attenuate sympathetic neurotransmission in porcine anterior uvea.

N#CC[C@H](N)C(=O)O [BCA, β-cyano-L-alanine]
shift of concentration-response curves to NaHS (isolated porcine iris; modifier 1 mM): shifted concentration-response curves to NaHS to the right

S [NaHS, sodium hydrosulfide]
relaxation of tone induced by a submaximal concentration of carbachol (isolated porcine iris; NaHS 30 nM-100 μM): concentration-related relaxation
relative potency in eliciting relaxation of tone (isolated porcine iris; NaHS versus Na2S): more potent than Na2S
IC50 (isolated porcine iris; Sus scrofa, concentration range 30 nM to 300 μM): 7 µM
effect on intraocular pressure in the treated eyes ([1]; NaHS 1% in sterile saline, topical, one eye, measured +0.5, +1, +3, +6 hours): time-dependent significant (p<0.001) reduction in intraocular pressure
intraocular pressure in contralateral eyes treated with only the saline vehicle ([1]; NaHS 1% topical to the other eye): parallel (but smaller) decrease in intraocular pressure
hyperemia and/or papillary changes ([1]; NaHS 1% topical, experimental and control eyes, all times tested): No hyperemia and/or papillary changes were observed
time of maximum reduction in intraocular pressure ([1]; NaHS 1% topical, treated eyes): 3 h
intraocular pressure after 6 hours ([1]; NaHS 1% topical, treated eyes, 6 hours): remained depressed
stimulation-evoked [3H]NE release ([2]; 1 μM applied 8 minutes before and during S2): marked inhibition
electrically-evoked [3H]NE overflow ([2]; NaHS 0.1-100 μM): concentration-dependent inhibition
norepinephrine concentrations in the isolated porcine iris-ciliary body [3]: concentration-dependent decrease

C#CCC(N)C(=O)O (stereo not shown) [PAG, propargylglycine, reference compound]
shift of concentration-response curves to NaHS (isolated porcine iris; modifier 1 mM): shifted concentration-response curves to NaHS to the right
effect on NaHS-induced inhibition of evoked [3H]NE release [2]: blocked the inhibitory response elicited by NaHS

C[S+](CC[C@H](N)C(=O)O)C[C@H]1O[C@@H](n2cnc3c(N)ncnc32)[C@H](O)[C@@H]1O (stereo partly drawn) [SAM, S-adenosyl-L-methionine]
effect on relaxations induced by the higher concentration of NaHS (isolated porcine iris): attenuated
shift of NaHS concentration-response curve (isolated porcine iris): significant leftward shift

NOCC(=O)O [AOA, aminooxyacetic acid, reference compound]
shift of concentration-response curves to NaHS (isolated porcine iris; AOA 30 μM): significant (P<0.001) rightward shifts
effect on NaHS-induced inhibition of evoked [3H]NE release [2]: blocked the inhibitory response elicited by NaHS

sodium sulfide [Na2S]
IC50 (isolated porcine iris): 70 µM
basal tritium efflux [2]: without affecting basal tritium efflux
electrically-evoked [3H]NE release [2]: concentration-dependent inhibition

COc1ccc(Cl)cc1C(=O)NCCc1ccc(S(=O)(=O)NC(=O)NC2CCCCC2)cc1 [glibenclamide]
shift of concentration-response curves to NaHS (isolated porcine iris; glibenclamide 300 μM): significant rightward shift
